Laboratory results reported in patent US20080038357A1, “Inhalation Powder Containing the CGRP antagonist BIBN4096 and Process for the Preparation Thereof” (priority 2002, published 2008).

Key:
[1] = Stability of the amorphous state of the microparticles; type: physicochemical; conditions: normal conditions (T<50° C., relative humidity <75%)
[2] = conventional preparations; cited from earlier work
[3] = Bioavailability after administration by inhalation; conditions: in vivo, inhaled or intranasal; administered by inhalation as spherically nanostructured microparticles; based on the fine fraction of the formulation (FPD, USP 24 Suppl. 2000)

stability of amorphous state [1]: stable in their amorphous state | bioavailability [3]: ~60%
Compound: NCCCC[C@H](NC(=O)[C@@H](Cc1cc(Br)c(O)c(Br)c1)NC(=O)N1CCC(N2Cc3ccccc3NC2=O)CC1)C(=O)N1CCN(c2ccncc2)CC1 [BIBN4096, 1-[N^2-[3,5-dibromo-N-[[4-(3,4-dihydro-2(1H)-oxoquinazolin-3-yl)-1-piperidinyl]carbonyl]-D-tyrosyl]-L-lysyl]-4-(4-pyridinyl)-piperazine]
bioavailability by oral route [2]: only limited bioavailability by oral route
